Measurements from paper PMC4489529 (Antiviral chemistry & chemotherapy, 2014).
Like-named read-outs stand apart in the source and are kept apart here.

Legend:
[1] = test system: Caco-2 cells
[2] = buffer
[3] = test system: Caco-2 cells; experiment: Caco-2 assay to assess permeability; conditions: divalerate prodrug versus parent drug
[4] = in vitro; conditions: human, Caco-2, pH 7.4
[5] = pH 7.4, reported for the parent compound; cited from earlier work
[6] = test system: U373-MAGI-CXCR4CEM cells; conditions: at 5 μM, data not shown

| Compound | Permeability ([1]; Caco-2) [cm/s] | Permeability ([1]; Caco-2, pH 7.4) | Half-life at pH 2.0 [2] [h] | Half-life at pH 4.65 [2] [h] | Half-life at pH 7.4 [2] [h] | Permeability of prodrug relative to parent compound [3] [fold] | recovery at 60 min, 10 μM [4] [%] | Half-life at pH 7.4 [5] [h] | Permeability of prodrug relative to parent compound ([1]; Caco-2) | Decrease in cell proliferation [6] |
| --- | --- | --- | --- | --- | --- | --- | --- | --- | --- | --- |
| CCCCC(=O)OC[C@H]1O[C@@H](n2ccc(N)nc2=O)C(F)(F)[C@@H]1OC(=O)CCCC [Gemcitabine divalerate, gemcitabine divalerate] | 2.1e-06 | 2.1 10^−6 cm/s | 85 | 247 | 135 | 4.2 |  |  |  |  |
| Nc1ncn([C@H]2C[C@H](O)[C@@H](CO)O2)c(=O)n1 [Decitabine, 5-aza-2′-deoxycytidine] |  |  |  |  |  |  | 91 | 12.9 ±0.9 |  |  |
| CCCCC(=O)OC[C@H]1O[C@@H](n2cnc(N)nc2=O)C[C@@H]1OC(=O)CCCC [Decitabine divalerate, decitabine divalerate] | 3.2e-06 | 3.2 10^−6 cm/s | 17 | 36 | 28 |  |  |  | fourfold higher | less than 5% |
| Nc1ccn([C@@H]2O[C@H](CO)[C@@H](O)C2(F)F)c(=O)n1 [Gemcitabine, 2′,2′-difluoro-2′-deoxycytidine] |  |  |  |  |  |  | 111 |  |  |  |
